IC50 and fold induction data for one compound are collected here from patent US9108983B2, “Pyrrole compounds, a process for their preparation and pharmaceutical compositions containing them” (LES LABORATOIRES SERVIER, priority 2013, dated 2015).

The target of one assay is Bcl-2 protein (histag-Bcl-2, UniProtKB P10415) (Homo sapiens (Human), UniProt P10415). Kind of assay: Inhibition of Bcl-2 by the fluorescence polarisation technique. It is filed as binding. As to conditions: incubation for 2 hours, read-out: IC50 (nM) Bcl-2 FP. The method, boiled down: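 Fluorescence polarisation competition: His-tagged Bcl-2 (2.50×10^−8 M final) with fluorescein-labelled peptide (1.00×10^−8 M final) in 10 mM Hepes, 150 mM NaCl, 0.05% Tween20, pH 7.4. Increasing compound concentrations were added. Polarisation was read after 2 h incubation.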
Bcl-2 protein, sequence (P10415 whole entry): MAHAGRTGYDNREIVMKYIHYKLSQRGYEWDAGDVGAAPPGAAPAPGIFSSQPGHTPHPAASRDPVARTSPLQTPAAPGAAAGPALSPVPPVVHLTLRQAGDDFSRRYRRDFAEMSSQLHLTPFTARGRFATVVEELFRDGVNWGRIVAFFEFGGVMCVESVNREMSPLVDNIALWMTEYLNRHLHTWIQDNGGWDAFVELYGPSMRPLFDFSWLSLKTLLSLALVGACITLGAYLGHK
For orientation: In fluorescence polarisation assays a small probe gives low polarisation when free and higher when bound to something large.

In assay [1] the test system is RS4;11 leukaemia tumour line. Kind of assay: In vitro cytotoxicity (Microculture Tetrazolium Assay). The class given is cell-based. Conditions: Homo sapiens, RS4-11, 48 h, RS4;11 cells, exposed for 48 hours, cell viability; read-out: IC50 (nM) MTT RS4;11. The procedure:
The cytotoxicity studies were carried out on the RS4;11 leukaemia tumour line.
The cells are distributed onto microplates and exposed to the test compounds for 48 hours.
The cell viability is then quantified by a colorimetric assay, the Microculture Tetrazolium Assay (Cancer Res., 1987, 47, 939-942).

For assay [2], the system named is cleaved (activated) form of caspase 3 in RS4;11 leukaemia cell xenograft tumours. Kind of assay: Quantification of the cleaved form of caspase 3 in vivo (MSD ELISA). More on the design: species or system mice (SCID strain). Conditions: Mus musculus, cleaved caspase 3 MSD test, oral route, tumour removed after 2 hours, read-out: Activation factor ± SEM (versus control). The procedure:
The ability of the compounds of the invention to activate caspase 3 is evaluated in a xenograft model of RS4;11 leukaemia cells.
1×10^7 RS4;11 cells are grafted sub-cutaneously into immunosuppressed mice (SCID strain). 25 to 30 days after the graft, the animals are treated orally with the various compounds. After treatment, the tumour masses are recovered and lysed, and the cleaved (activated) form of caspase 3 is quantified in the tumour lysates.
The quantification is carried out using the “Meso Scale Discovery (MSD) ELISA platform” test, which specifically assays the cleaved form of caspase 3. It is expressed in the form of an activation factor corresponding to the ratio between the quantity of cleaved caspase 3 in the treated mice divided by the quantity of cleaved caspase 3 in the control mice.
(In general: An ELISA detects its analyte on a solid surface through an enzyme-linked reagent.)

Counter-ions that a name gives are not always drawn.

By IC50 is commonly meant the concentration needed to halve the response being measured. In the case of `Cc1c(C(=O)N(c2ccc(O)cc2)c2cnc3c(c2)CCN3C)cc(-c2cc(Cl)ccc2C(=O)N2Cc3ccccc3C[C@H]2CN2CCOCC2)n1C` [Example 388, 5-(5-Chloro-2-{[(3S)-3-(morpholin-4-ylmethyl)-3,4-dihydroisoquinolin-2(1H)-yl]carbonyl}phenyl)-N-(4-hydroxyphenyl)-1,2-dimethyl-N-(1-methyl-2,3-dihydro-1H-pyrrolo[2,3-b]pyridin-5-yl)-1H-pyrrole-3-carboxamide dihydrochloride], the IC50 was 3.6 nM on Bcl-2 protein and 16.5 nM in assay [1]. Besides, in assay [2], the fold induction at 25 mg/kg was 85.7 ± 3.7.
